Results published in publication PMC4804240, “Crystal structure of the vicilin from Solanum melongena reveals existence of different anionic ligands in structurally similar pockets” (Scientific Reports, 2016).

Legend:
[1] = molecular target: SM80.1, 7S vicilin from Solanum melongena (eggplant) seeds (Solanum melongena); test: crystal structure; R32 crystal form, 1.5 A; one monomer in the asymmetric unit, trimer formed around the threefold crystallographic axis; crystals grown in 10% (w/v) PEG 3350, 1.5 M-2 M sodium malonate, hanging drop, 25°C
SM80.1 = molecular target: T1, SM80.1 (Solanum virginianum, UniProt A0A158RFR1); test: X-ray crystal structure, […] Å; assay type: binding; conditions: crystals from PEG 3350, sodium malonate, 25°C
T1 construct: native protein from seeds (ammonium sulphate fraction, gel filtration); 45 kDa band; homotrimer; 392 residues in structure
T1 sequence (A0A158RFR1 1-392): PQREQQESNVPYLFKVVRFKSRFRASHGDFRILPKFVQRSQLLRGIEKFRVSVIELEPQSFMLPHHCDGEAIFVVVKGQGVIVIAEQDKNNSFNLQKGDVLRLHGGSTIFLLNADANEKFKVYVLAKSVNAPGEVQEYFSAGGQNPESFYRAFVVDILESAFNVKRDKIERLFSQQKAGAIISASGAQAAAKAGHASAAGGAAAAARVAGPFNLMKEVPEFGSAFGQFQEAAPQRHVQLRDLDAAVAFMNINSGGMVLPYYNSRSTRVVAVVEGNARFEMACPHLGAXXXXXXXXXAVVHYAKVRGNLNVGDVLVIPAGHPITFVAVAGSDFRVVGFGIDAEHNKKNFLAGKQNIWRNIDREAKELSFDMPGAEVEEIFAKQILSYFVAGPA

## SM80.1, 7S vicilin from Solanum melongena (eggplant) seeds (natural protein)
[1]
  stoichiometry N: 3

## O=C1CC[C@@H](C(=O)O)N1 [PCA, pyroglutamate]
SM80.1; co-purified endogenous ligand, N-terminal beta-barrel pocket (His65, Cys67)
  X-ray crystal structure, 1.5 Å: The N-terminal domain has cyclic lactam of glutamate, called pyroglutamate.

## CC(=O)O [ACT, acetate]
SM80.1; bound without being listed in crystallisation mix, C-terminal beta-barrel pocket (Tyr260, Asn262, Arg267, Lys346)
  X-ray crystal structure, 1.5 Å: Acetate moiety was present in the corresponding pocket in the C-terminal domain
